system: smooth muscle cells (SMC); assay: anti-proliferation assay (perlecan); assay type: cell-based; conditions: using the same activity scale used in Table 3
Protocol: The activity scale used in Table 3 as follows (numbers are inclusive): “+++” represents IC50 of less than about 3 μM; “++” represents IC50 of between about 3 and about 7 μM; and “+” represents IC50 of greater than about 7 μM. In addition, compounds, to include compositions thereof, encompassed within the scope of structures Ia-XXIVa, respectively, or listed in Tables 1A and 1E may be likewise employed in this embodiment and/or aspect of the present invention. Further, any hydrogen atoms that are required for any atom to attain its usual valence in a structure presented in Table 3, whether a carbon atom or a heteroatom, should be inferred if it is not specifically indicated.
In addition to the above compounds, the following compounds and compositions comprising these compounds are active in an anti-proliferation assay (Perlecan). These compounds and compositions comprising these compounds are, among other things, generally useful for treating cardiovascular disorders associated with proliferative activity. Specifically, these compounds include N^2-cycloheptyl-N^4-(3-fluoro-4-methoxyphenyl)-N^6-methyl-N^6-(1-methyl-piperidin-4-yl)-1,3,5-triazine-2,4,6-triamine, and N^2-cycloheptyl-N^4-methyl-N^4-(1-methyl-piperidin-4-yl)-N^6-naphthalen-2-yl-1,3,5-triazine-2,4,6-triamine.
Methods for identifying the activity and screening for one or more of these compounds or molecules that induce synthesis of proteoglycans such as HSPG (heparan sulfate proteoglycan) are taught in U.S. patent application Ser. No. 10/091,357, which is incorporated herein in its entirety. Assays of effects of compounds in vivo are also taught in the incorporated references and are known to those skilled in the art. In general, methods comprise the addition of such compounds to assays and measurement of HSPG synthesis including, but not limited to, the production of syndecans, glypicans and perlecans, for example, syndecans 1, 2 and 4; and glypican-1. Other assays that can be used to determine the activity of the compounds of the present invention include other methods for measuring the induction of perlecan synthesis. For example, in one assay, perlecan is induced in cells by certain inducers, and the response is measured. Compounds of the present invention are then added to a replicate assay and the effect on perlecan induction is determined. Using such methods, compounds are determined that can either inhibit perlecan, elevate induction of perlecan, or that have no effect at all. Those compounds that are effective as therapeutic agents can then be used in animals, humans or patients with cellular proliferation disease aspects, such as vascular-associated diseases or SMC proliferation pathologies.
Another assay for determining compounds having SMC effects comprises adding a composition suspected of affecting SMC proliferation to smooth muscle cells in growth medium or serum-free medium. The change in cell proliferation can be measured by methods known to those skilled in the art, such as incorporation of labeled nucleotides into dividing cells' DNA, and compared to the proliferation of cells which are not treated with the compound. Other measurements include directly determining levels of HSPG synthesis by measuring the amount or change in amount of HSPG such as with ELISA for HSPGs, and compared to the amount of HSPG synthesis in untreated cells. Other indirect or direct measurement are contemplated by the present invention and are known to those skilled in the art. For example, such methods include, but are not limited to, measurement of RNA levels, RT-PCR, Northern blotting, Western blotting promoter-based assays to identify compounds that affect one or more proteoglycans and assays for proteoglycan biological activity shown by recombinant proteins, partially purified proteins, or lysates from cells expressing proteoglycans in the presence or absence of compounds of interest.

**Q.** For `COc1ccc(Nc2nc(NC3CCCCCC3)nc(OCC3CCCN3C)n2)cc1Cl` (stereo not shown) [N-(3-Chloro-4-methoxy-phenyl)-N′-cycloheptyl-6-(1-methyl-pyrrolidin-2-ylmethoxy)-[1,3,5]triazine-2,4-diamine], which “activity in anti-proliferation assay (Perlecan), in words” value (shortened to “activity in anti-proliferation assay”) is on record?
**A.** The value was “high activity”.

**Q.** How did the “activity in anti-proliferation assay” value turn out when `COc1cc(OC)c(-c2nc(Nc3ccc(OC)c(Cl)c3)nc(NC3CCCCCC3)n2)c(OC)c1` [N-(3-Chloro-4-methoxy-phenyl)-N′-cycloheptyl-6-(2,4,6-trimethoxy-phenyl)-[1,3,5]triazine-2,4-diamine] was run?
**A.** The value was “high activity”.

**Q.** `COc1ccc(-c2nc(Nc3ccc(OC)c(Cl)c3)nc(NC3CCCCCC3)n2)c(OC)c1` [N-(3-Chloro-4-methoxy-phenyl)-N′-cycloheptyl-6-(2,4-dimethoxy-phenyl)-[1,3,5]triazine-2,4-diamine] was tested. Which “activity in anti-proliferation assay” value did it give?
**A.** Its value is “high activity”.

**Q.** With `COc1ccc(Nc2nc(NC3CCCCCC3)nc(Sc3c(Cl)cccc3Cl)n2)cc1Cl` [N-(3-Chloro-4-methoxy-phenyl)-N′-cycloheptyl-6-(2,6-dichloro-phenylsulfanyl)-[1,3,5]triazine-2,4-diamine] as the compound, how does the “activity in anti-proliferation assay” value read?
**A.** Its value is “high activity”.

**Q.** For `COc1ccc(Nc2nc(NC3CCCCCC3)nc(Oc3ccccc3F)n2)cc1Cl` [N-(3-Chloro-4-methoxy-phenyl)-N′-cycloheptyl-6-(2-fluoro-phenoxy)-[1,3,5]triazine-2,4-diamine], which “activity in anti-proliferation assay” value is on record?
**A.** Its value is “high activity”.

**Q.** With `COc1ccc(Nc2nc(NC3CCCCCC3)nc(Oc3ccccc3I)n2)cc1Cl` [N-(3-Chloro-4-methoxy-phenyl)-N′-cycloheptyl-6-(2-iodo-phenoxy)-[1,3,5]triazine-2,4-diamine] as the compound, how does the “activity in anti-proliferation assay” value read?
**A.** The value was “high activity”.

**Q.** `COc1ccc(Nc2nc(NC3CCCCCC3)nc(Sc3ccccc3OC)n2)cc1Cl` [N-(3-Chloro-4-methoxy-phenyl)-N′-cycloheptyl-6-(2-methoxy-phenylsulfanyl)-[1,3,5]triazine-2,4-diamine] was tested. Which “activity in anti-proliferation assay” value did it give?
**A.** The value was “high activity”.

**Q.** With `COc1ccc(Nc2nc(NC3CCCCCC3)nc(Sc3ccc(F)cc3)n2)cc1Cl` [N-(3-Chloro-4-methoxy-phenyl)-N′-cycloheptyl-6-(4-fluoro-phenylsulfanyl)-[1,3,5]triazine-2,4-diamine] as the compound, how does the “activity in anti-proliferation assay” value read?
**A.** Its value is “high activity”.

**Q.** With `COc1ccc(Nc2nc(NC3CCCCCC3)nc(Oc3ccc(I)cc3)n2)cc1Cl` [N-(3-Chloro-4-methoxy-phenyl)-N′-cycloheptyl-6-(4-iodo-phenoxy)-[1,3,5]triazine-2,4-diamine] as the compound, how does the “activity in anti-proliferation assay” value read?
**A.** The value was “high activity”.

**Q.** For `COc1ccc(Nc2nc(NC3CCCCCC3)nc(Oc3cccc(C)n3)n2)cc1Cl` [N-(3-Chloro-4-methoxy-phenyl)-N′-cycloheptyl-6-(6-methyl-pyridin-2-yloxy)-[1,3,5]triazine-2,4-diamine], which “activity in anti-proliferation assay” value is on record?
**A.** The value was “high activity”.

**Q.** `COc1ccc(Nc2nc(NC3CCCCCC3)nc(Oc3cccnc3)n2)cc1Cl` [N-(3-Chloro-4-methoxy-phenyl)-N′-cycloheptyl-6-(pyridin-3-yloxy)-[1,3,5]triazine-2,4-diamine] was tested. Which “activity in anti-proliferation assay” value did it give?
**A.** Its value is “high activity”.

**Q.** `COc1ccc(Nc2nc(NC3CCCCCC3)nc(OCC3CCCO3)n2)cc1Cl` (stereo not shown) [N-(3-Chloro-4-methoxy-phenyl)-N′-cycloheptyl-6-(tetrahydro-furan-2-ylmethoxy)-[1,3,5]triazine-2,4-diamine] was tested. Which “activity in anti-proliferation assay” value did it give?
**A.** Its value is “high activity”.

**Q.** How did the “activity in anti-proliferation assay” value turn out when `COc1ccc(Nc2nc(NC3CCCCCC3)nc(OCCOc3ccccc3F)n2)cc1Cl` [N-(3-Chloro-4-methoxy-phenyl)-N′-cycloheptyl-6-[2-(2-fluoro-phenoxy)-ethoxy]-[1,3,5]triazine-2,4-diamine] was run?
**A.** Its value is “high activity”.

**Q.** With `COc1ccc(Nc2nc(NC3CCCCCC3)nc(OC(C)C)n2)cc1Cl` [N-(3-Chloro-4-methoxy-phenyl)-N′-cycloheptyl-6-isopropoxy-[1,3,5]triazine-2,4-diamine] as the compound, how does the “activity in anti-proliferation assay” value read?
**A.** Its value is “high activity”.

**Q.** With `COc1ccc(Nc2nc(NC3CCCCCC3)nc(Sc3ccccc3)n2)cc1Cl` [N-(3-Chloro-4-methoxy-phenyl)-N′-cycloheptyl-6-phenylsulfanyl-[1,3,5]triazine-2,4-diamine] as the compound, how does the “activity in anti-proliferation assay” value read?
**A.** Its value is “high activity”.

**Q.** `COc1ccc(Nc2nc(NCC3CCCO3)nc(NC3CCCCCC3)n2)cc1Cl` (stereo not shown) [N-(3-Chloro-4-methoxy-phenyl)-N′-cycloheptyl-N″-(tetrahydro-furan-2-ylmethyl)-[1,3,5]triazine-2,4,6-triamine] was tested. Which “activity in anti-proliferation assay” value did it give?
**A.** Its value is “high activity”.

**Q.** With `COc1ccc(Nc2nc(NC3CCCCCC3)nc(NC3CCNCC3)n2)cc1Cl` [N-(3-Chloro-4-methoxy-phenyl)-N′-cycloheptyl-N″-piperidin-4-yl-[1,3,5]triazine-2,4,6-triamine] as the compound, how does the “activity in anti-proliferation assay” value read?
**A.** The value was “high activity”.

**Q.** `CCN1CCCC1CNc1nc(Nc2ccc(OCc3ccccc3)c(Cl)c2)nc(NC2CCCCCC2)n1` (stereo not shown) [N-(4-Benzyloxy-3-chloro-phenyl)-N′-cycloheptyl-N″-(1-ethyl-pyrrolidin-2-ylmethyl)-[1,3,5]triazine-2,4,6-triamine] was tested. Which “activity in anti-proliferation assay” value did it give?
**A.** The value was “high activity”.

**Q.** Which “activity in anti-proliferation assay” value does the source give for `CCOc1nc(Nc2ccc(OC)c(F)c2)nc(NC2CCCCCC2)n1` [N-Cycloheptyl-6-ethoxy-N′-(3-fluoro-4-methoxy-phenyl)-[1,3,5]triazine-2,4-diamine] here?
**A.** The value was “high activity”.

**Q.** How did the “activity in anti-proliferation assay” value turn out when `CCN1CCCC1CNc1nc(Nc2ccc(C)c(F)c2)nc(NC2CCCCCC2)n1` (stereo not shown) [N-Cycloheptyl-N′-(1-ethyl-pyrrolidin-2-ylmethyl)-N″-(3-fluoro-4-methyl-phenyl)-[1,3,5]triazine-2,4,6-triamine] was run?
**A.** Its value is “high activity”.

**Q.** For `Cc1ccc(Nc2nc(NC3CCCCCC3)nc(N(C)C3CCN(C)CC3)n2)cc1F` [N-Cycloheptyl-N′-(3-fluoro-4-methyl-phenyl)-N″-methyl-N″-(1-methyl-piperidin-4-yl)-[1,3,5]triazine-2,4,6-triamine], which “activity in anti-proliferation assay” value is on record?
**A.** Its value is “high activity”.

**Q.** How did the “activity in anti-proliferation assay” value turn out when `CN1CCC(N(C)c2nc(Nc3cccc(F)c3)nc(NC3CCCCCC3)n2)CC1` [N-Cycloheptyl-N′-(3-fluoro-phenyl)-N″-methyl-N″-(1-methyl-piperidin-4-yl)-[1,3,5]triazine-2,4,6-triamine] was run?
**A.** Its value is “high activity”.

**Q.** Which “activity in anti-proliferation assay” value does the source give for `CN1CCC(N(C)c2nc(Nc3cccc([N+](=O)[O-])c3)nc(NC3CCCCCC3)n2)CC1` [N-Cycloheptyl-N′-methyl-N′-(1-methyl-piperidin-4-yl)-N″-(3-nitro-phenyl)-[1,3,5]triazine-2,4,6-triamine] here?
**A.** The value was “high activity”.

**Q.** With `COc1ccc(Nc2nc(NC3CCCCCC3)nc(N(C)C3CCN(C)CC3)n2)cc1F` [N^2-cycloheptyl-N^4-(3-fluoro-4-methoxyphenyl)-N^6-methyl-N^6-(1-methyl-piperidin-4-yl)-1,3,5-triazine-2,4,6-triamine] as the compound, how does the “activity in anti-proliferation assay” value read?
**A.** The value was “medium or moderate activity”.

**Q.** How did the “activity in anti-proliferation assay” value turn out when `CN1CCC(N(C)c2nc(Nc3ccc4ccccc4c3)nc(NC3CCCCCC3)n2)CC1` [N^2-cycloheptyl-N^4-methyl-N^4-(1-methyl-piperidin-4-yl)-N^6-naphthalen-2-yl-1,3,5-triazine-2,4,6-triamine] was run?
**A.** Its value is “high activity”.
